SMILES strings stand for the structures. Like-named read-outs stand apart in the source and are kept apart here.

Assay [1] has as its system PC14. Put plainly: Cell-based assay, anti-proliferative activity (Cell Counting Kit-8, 72 hours). Conditions: Homo sapiens, read-out: IC50 (μM) PC14. Summed up: (§1)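 Growth inhibition is read by Cell Counting Kit-8 after three days of compound treatment. Test concentrations span 0, 1.5625, 3.125, 6.25, 12.5, 25, 50 and 100 micro-M, and IC50 serves as the anti-proliferative measure.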
For orientation: Tetrazolium dyes change colour on reduction, which living cells bring about.

Assay [2] deals with CCD-18Co. The description is as above. The settings on record: Homo sapiens, read-out: IC50 (μM) CCD-18Co. The essentials:
as §1

The subject of assay [3] is HCT-116. Described as above. Conditions: Homo sapiens, read-out: IC50 (μM) HCT-116. The essentials:
as §1

The subject of assay [4] is HFL1. The description is as above. The settings on record: Homo sapiens, read-out: IC50 (μM) HFL1. The essentials: as §1
For assay [5], the system named is A549. Described as above. Conditions: Homo sapiens, read-out: IC50 (μM) A549. The essentials:
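IC50 values come from growth read-outs taken after the cells' exposure to each candidate inhibitor. Cells had been plated in 96-well microtiter plates beforehand.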

In assay [6] the target is SUV39H2 (Homo sapiens (Human), UniProt Q9H5I1). Conditions: read-out: IC50 (μM) Suv 39H2 assay; enzyme assay.
SUV39H2, sequence (Q9H5I1 whole entry): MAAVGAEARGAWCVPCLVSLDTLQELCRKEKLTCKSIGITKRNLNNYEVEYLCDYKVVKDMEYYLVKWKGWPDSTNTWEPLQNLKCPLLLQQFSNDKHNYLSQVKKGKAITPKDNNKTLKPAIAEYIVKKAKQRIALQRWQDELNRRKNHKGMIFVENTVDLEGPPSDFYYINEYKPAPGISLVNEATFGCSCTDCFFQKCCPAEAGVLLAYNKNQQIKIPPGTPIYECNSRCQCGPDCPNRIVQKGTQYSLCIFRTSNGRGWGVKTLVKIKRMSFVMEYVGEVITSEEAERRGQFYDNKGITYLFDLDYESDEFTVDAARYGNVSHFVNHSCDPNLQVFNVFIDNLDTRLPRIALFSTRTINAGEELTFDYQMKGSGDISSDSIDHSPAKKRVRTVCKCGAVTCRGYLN
Setting [7] is: PC-14, PC14 cells, 72 hours, Cell Counting Kit-8.
Setting [8] is: CCD-18Co cells, 72 hours, Cell Counting Kit-8.
The mark [9] stands for this setting: HCT-116 cells, 72 hours, Cell Counting Kit-8.
The mark [10] stands for this setting: HFL1 cells, 72 hours, Cell Counting Kit-8.
[11] abbreviates: A549 cells, 72 hours, Cell Counting Kit-8.
The mark [12] stands for this setting: PC-14, PC14 cells, Cell Counting Kit-8, 72 hours.
Setting [13] is: CCD-18Co cells, Cell Counting Kit-8, 72 hours.
The mark [14] stands for this setting: HCT-116 cells, Cell Counting Kit-8, 72 hours.
Setting [15] is: HFL1 cells, Cell Counting Kit-8, 72 hours.
The mark [16] stands for this setting: A549 cells, Cell Counting Kit-8, 72 hours.

As a reminder, the IC50 is the concentration that gives 50% inhibition. On to `COc1cc(OC)c(-c2cn3ccc(N4CCC(O)CC4)cc3n2)cc1Cl` [Example 231, 1-(2-(5-chloro-2,4-dimethoxyphenyl)imidazo[1,2-a]pyridine-7-yl)piperidin-4-ol], for which the IC50 is 3.9 µM in assay [1] (setting [7]); 9.1 µM in assay [2] (setting [8]); 10 µM in assay [3] (setting [9]); 6.7 µM in assay [4] (setting [10]); 10 µM in assay [5] (setting [11]); 0.00488 µM in assay [6].
For the molecule `COc1cc(C)c(Cl)cc1-c1cn2ccc(N3CCN(S(=O)(=O)C4CC4)CC3)cc2n1` [Example 229, 2-(5-chloro-2-methoxy-4-methylphenyl)-7-(4-(cyclopropylsulfonyl)-piperazin-1-yl)imidazo[1,2-a]pyridine], the IC50 in assay [1] (setting [7]) came to 0.8 µM; in assay [2] (setting [8]), 3.8 µM; in assay [3] (setting [9]) it was 2.1 µM; in assay [4] (setting [10]), 2.3 µM; in assay [5] (setting [11]), 1.9 µM; in assay [6] it was 0.0775 µM.
Consider `COc1cc(OC)c(-c2cn3ccc(N4CCC(NS(=O)(=O)C(F)(F)F)CC4)cc3n2)cc1Cl` [Example 176, N-{1-[2-(5-chloro-2,4-dimethoxyphenyl)imidazo[1,2-a]pyridin-7-yl]piperidin-4-yl}-1,1,1-trifluoromethanesulfonamide], for which the IC50 was 0.75 µM in assay [1] (setting [12]); 0.53 µM in assay [2] (setting [13]); 0.55 µM in assay [3] (setting [14]); 0.36 µM in assay [4] (setting [15]); 0.51 µM in assay [5] (setting [16]); 0.0641 µM in assay [6].
In the case of `COc1cc(OC)c(-c2cn3ccc(N(C)CCN)cc3n2)cc1Cl` [Example 54, N^1-(2-(5-chloro-2,4-dimethoxyphenyl)imidazo[1,2-a]yridine-7-yl)-N1-metylethane-1,2-diamine], the IC50 in assay [1] (PC-14, 72 h) was found to be 4.9 µM; in assay [2] (CCD-18Co, 72 h) it was 3.3 µM; in assay [3] (HCT-116, 72 h), 3.1 µM; in assay [4] (HFL1, 72 h) it was 2.5 µM; in assay [5] (A549, 72 h) it was 4.2 µM; in assay [6], 0.00585 µM.
Turning to `CCCCCNC1CCN(c2ccn3cc(-c4cc(Cl)c(OC)cc4OC)nc3c2)CC1` [Example 129, 1-[2-(5-chloro-2,4-dimethoxyphenyl)imidazo[1,2-a]pyridin-7-yl]-N-pentylpiperidin-4-amine], the IC50 was found to be 1.7 µM in assay [1] (setting [12]); 1.3 µM in assay [2] (setting [13]); 0.74 µM in assay [3] (setting [14]); 0.7 µM in assay [4] (setting [15]); 1.5 µM in assay [5] (setting [16]); 0.00841 µM in assay [6].
Turning to `CC[C@H](C)[C@H](NC)C(=O)Nc1ccn2cc(-c3cc(Cl)c(OC)cc3OC)nc2c1` [Example 266, (2S,3S)—N-(2-(5-chloro-2,4-dimethoxyphenyl)imidazo[1,2-a]pyridin-7-yl)-3-methyl-2-(methylamino)pentanamide], the IC50 in assay [1] (setting [7]) stood at 1.5 µM; in assay [2] (setting [8]), 1.3 µM; in assay [3] (setting [9]), 2.8 µM; in assay [4] (setting [10]), 1.2 µM; in assay [5] (setting [11]), 1.5 µM; in assay [6], 0.0454 µM.
Consider `CCOC(=O)CCN1CCN(c2ccn3cc(-c4cc(Cl)c(OC)cc4OC)nc3c2)CC1` [Example 132, ethyl 3-(4-(2-(5-chloro-2,4-dimethoxyphenyl)imidazo[1,2-a]pyridin-7-yl)piperazin-1-yl)propanoate], for which the IC50 in assay [1] (setting [12]) worked out at 9 µM; in assay [2] (setting [13]) it was 22 µM; in assay [3] (setting [14]), 9.8 µM; in assay [4] (setting [15]), 7.6 µM; in assay [5] (setting [16]), 11 µM; in assay [6], 0.0124 µM.
`COc1cc(OC)c(-c2cn3ccc(N4CCN(CCC(=O)NCCN(C)C)CC4)cc3n2)cc1Cl` [Example 158, 3-(4-(2-(5-chloro-2,4-dimethoxyphenyl)imidazo[1,2-a]pyridin-7-yl)piperazin-1-yl)-N-(2-(dimethylamino)ethyl)propanamide]: the IC50 in assay [1] (setting [12]) was 9.8 µM; in assay [2] (setting [13]), 14 µM; in assay [3] (setting [14]), 9.4 µM; in assay [4] (setting [15]) it was 7.7 µM; in assay [5] (setting [16]), 9.3 µM; in assay [6] it was 0.00353 µM.
On to `COc1cc(OCCCN(C)C)c(-c2cn3ccc(N4CCN(S(=O)(=O)C5CC5)CC4)cc3n2)cc1Cl` [Example 160, 3-(4-Chloro-2-{7-[4-(cyclopropylsulfonyl)piperazin-1-yl]imidazo[1,2-a]pyridin-2-yl}-5-methoxyphenoxy)-N,N-dimethylpropan-1-amine], for which the IC50 stood at 1.9 µM in assay [1] (setting [12]); 2.9 µM in assay [2] (setting [13]); 1.2 µM in assay [3] (setting [14]); 1.5 µM in assay [4] (setting [15]); 1.4 µM in assay [5] (setting [16]); 0.0277 µM in assay [6].
For the molecule `COc1cc(OCCCN(C)C)c(-c2cn3ccc(N4CCN(S(=O)(=O)C5CCCC5)CC4)nc3n2)cc1Cl` [Example 227, 3-(4-chloro-2-(7-(4-(cyclopentylsulfonyl)piperazin-1-yl)imidazo[1,2-a]-pyrimidin-2-yl)-5-methoxyphenoxy)-N,N-dimethylpropan-1-amine], the IC50 in assay [1] (setting [7]) worked out at 5.4 µM; in assay [2] (setting [8]), 6.2 µM; in assay [3] (setting [9]), 5.2 µM; in assay [4] (setting [10]), 5.7 µM; in assay [5] (setting [11]), 7 µM; in assay [6], 0.0382 µM.
For the molecule `COc1cc(OC)c(-c2cn3ccc(N4CCC(NS(=O)(=O)N(C)C)CC4)cc3n2)cc1Cl` [Example 181, N-{1-[2-(5-Chloro-2,4-dimethoxyphenyl)imidazo[1,2-a]pyridin-7-yl]piperidin-4-yl}N,N-dimethylsulfonamide], the IC50 in assay [1] (setting [12]) is 1.5 µM; in assay [2] (setting [13]), 0.38 µM; in assay [3] (setting [14]), 1.6 µM; in assay [4] (setting [15]) it was 0.35 µM; in assay [5] (setting [16]), 0.76 µM; in assay [6], 0.0139 µM.
With `COc1cc(OCCCN(C)C)c(-c2cn3ccc(N4CCNCC4)nc3n2)cc1Cl` [Example 186, 3-(4-chloro-5-methoxy-2-(7-(piperazin-1-yl)imidazo[1,2-a]pyrimidin-2-yl)phenoxy)-N,N-dimethylpropan-1-amine], the IC50 was 12 µM in assay [1] (setting [12]); 35 µM in assay [2] (setting [13]); 17 µM in assay [3] (setting [14]); 7.3 µM in assay [4] (setting [15]); 22 µM in assay [5] (setting [16]); 0.0619 µM in assay [6].
As to `COC(=O)NC1CCN(c2ccn3cc(-c4cc(Cl)c(OC)cc4OC)nc3c2)CC1` [Example 122, methyl (1-(2-(5-chloro-2,4-dimethoxyphenyl)imidazo[1,2-a]pyridin-7-yl)piperidin-4-yl)carbamate], the IC50 stood at 3.3 µM in assay [1] (setting [12]); 6.4 µM in assay [2] (setting [13]); 5.8 µM in assay [3] (setting [14]); 4.9 µM in assay [4] (setting [15]); 2.7 µM in assay [5] (setting [16]); 0.00814 µM in assay [6].
Take `COc1cc(OC)c(-c2cn3cc(NCCN)c(N4CCOCC4)cc3n2)cc1Cl` [Example 89, N^1-(2-(5-chloro-2,4-dimethoxyphenyl)-7-morpholinoimidazo[1,2-a]-pyridin-6-yl)ethane-1,2-diamine]: the IC50 in assay [1] (setting [12]) is 2.7 µM; in assay [2] (setting [13]), 3 µM; in assay [3] (setting [14]) it was 4.4 µM; in assay [4] (setting [15]) it was 1.6 µM; in assay [5] (setting [16]) it was 3 µM; in assay [6], 0.00335 µM.
For the molecule `COc1cc(OC)c(-c2cn3ccc(N4CC[C@H](NCc5ccc(C)cc5)C4)cc3n2)cc1Cl` [Example 305, (S)-1-(2-(5-chloro-2,4-dimethoxyphenyl)imidazo[1,2-a]pyridin-7-yl)-N-(4-methylbenzyl)pyrrolidin-3-amine], the half-maximal inhibitory concentration (IC50) in assay [1] (setting [7]) was 0.99 µM; in assay [2] (setting [8]) it was 0.82 µM; in assay [3] (setting [9]), 0.59 µM; in assay [4] (setting [10]), 0.67 µM; in assay [5] (setting [11]), 1.1 µM; in assay [6], 0.0117 µM.

Values taken from US10508109B2 (priority 2015, dated 2019).
